Laboratory results reported in ChEMBL document CHEMBL1201862, “PubChem BioAssay data set” (2004).
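Step 1: Grow cells in 96-well plates. Step 2: Expose to compound for 48 hours at 5 concentrations. Step 3: Interpolate endpoints linearly; if unreached, use highest concentration. GI50 = concentration required for 50% inhibition of growth.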 Activity calls are given as the source filed them. Cut-off read from the data, not from the text of the source: active = GI50 up to about 1.1 µM and inactive = higher. Non-standard residues stand in square brackets, D forms with d. Square brackets hold non-standard residues; d marks the D form. Residues, ends and D or L forms follow the SMILES beside them. Peptide text beside a SMILES is read from it. * marks the point of attachment. *: point of attachment. X26 = COC1=CC(=O)N(C(=O)[C@@H](O*)C(C)C)[C@H]1Cc1ccccc1; NMeF = CN[CH](Cc1ccccc1)C(=O)O; NMeV = CN[CH](C(=O)O)C(C)C; Hexanoyl = CCCCCC(=O)*; Boc = CC(C)(C)OC(=O)*

Key:
Test in all cases: NCI anticancer screen, dose series, 48 h
[1] = test system: DLD-1
[2] = test system: XF498
[3] = test system: KM-20L2
[4] = test system: SNB-78
[5] = test system: DMS-273
[6] = test system: M19-MEL
[7] = test system: RXF 631
[8] = test system: BT-549
[9] = test system: HOP-18

Measured: GI50

CC(=O)C1(O)CC2(c3ccccc3)C(=O)C1(c1ccccc1)C(c1ccccc1)=C2c1ccccc1 (stereo unspecified)
inactive: [1] > 100 µM | [2] 6.24 µM | [3] > 100 µM | [4] > 100 µM | [5] 44.3 µM | [6] > 100 µM | [7] 89.1 µM

CC(CC=O)Nc1nn2c(=O)c3ccccc3nc2s1 (stereo unspecified)
inactive: [8] > 100 µM

O=C1CCC(C(=O)O)C2=C1CCCC2 (stereo unspecified)
inactive: [9] > 100 µM | [1] > 100 µM | [8] > 100 µM | [2] > 100 µM | [4] > 100 µM | [5] 17.1 µM | [6] > 100 µM

CC(N)/C(N)=N/O (stereo unspecified)
inactive: [8] > 100 µM

O=C(NNCc1ccc(Cl)cc1)Nc1cccc2ccccc12
inactive: [8] 97.1 µM

Cc1ccc(-c2cc(N)n(-c3nc4c([nH]3)c(=O)n(C)c(=O)n4C)n2)cc1
inactive: [8] 6.95 µM

Cc1cccc2sc(NC(=O)c3cc([N+](=O)[O-])ccc3Cl)nc12
inactive: [8] 2.44 µM

O=C1N/C(=N/N=C/C(O)C(O)C(O)C(O)CO)N/C1=C\c1ccco1 (stereo unspecified)
inactive: [8] > 100 µM

C=CN1CCN(c2ccccc2)P1(=O)Oc1ccccc1 (stereo unspecified)
inactive: [8] > 100 µM

Nc1ccccc1N/C=C\C(=O)C(Cl)(Cl)Cl
inactive: [8] 22.9 µM

CCOC(=O)c1c(-c2[nH]c(C(=O)OCc3ccccc3)c(C)c2C(=O)OCC)[nH]c(C(=O)OCc2ccccc2)c1C
inactive: [9] > 100 µM | [1] > 100 µM | [3] > 100 µM | [4] 67 µM | [5] > 100 µM | [6] > 100 µM

C#Cc1c(C)c(/C=C/C(C)=C/C(=O)OC)n(C)c1C
inactive: [9] > 100 µM | [1] 79.4 µM | [2] 77.3 µM | [3] 87.7 µM | [4] > 100 µM | [5] 88.7 µM | [6] > 100 µM

CC1=N[C@@](C)(C2CC3C=CC2C3=O)COC1=O (stereo partly specified)
inactive: [8] > 100 µM

CC1C2C=C(O)C(=O)C(C2=O)C1c1ccccc1 (stereo unspecified)
inactive: [1] > 100 µM | [3] 38.6 µM | [4] 87.5 µM | [5] > 100 µM | [6] > 100 µM | [7] > 100 µM

O=S1(=O)OCCOS(=O)(=O)C1(Br)Cc1ccccc1
inactive: [1] > 100 µM | [2] > 100 µM | [3] > 100 µM | [4] > 100 µM | [5] > 100 µM | [6] > 100 µM

CC1=CC(=O)N2C(OC[C@@H]2c2ccccc2)O1 (stereo partly specified)
inactive: [9] 20.7 µM | [1] > 100 µM | [2] > 100 µM | [3] > 100 µM | [6] > 100 µM

CC(C)c1cc(C(C)C)c(S(=O)(=O)N=[N+]=[N-])c(C(C)C)c1
inactive: [1] > 100 µM | [2] > 100 µM | [3] > 100 µM | [5] 94 µM | [6] 34.9 µM | [7] 59.8 µM

N=C1CSC2=NC3=C(CCC/C3=C\c3ccccc3)C(c3ccccc3)N12 (stereo unspecified)
inactive: [1] 5.4 µM | [2] 20.7 µM | [3] 4.37 µM | [4] 5.77 µM | [5] 3.8 µM | [6] 5.19 µM

Nc1ccccc1/N=N/c1c(S(=O)(=O)O)cc2cc(S(=O)(=O)O)cc(O)c2c1O
inactive: [8] > 100 µM

CC(=O)OCC1OC(OC2CC3C(C)(C)C(O)CC[C@]3(C)C3CCC45CC4(CCC5[C@@H](C)CC(O)C(O)C(C)(C)O)[C@]23C)C(O)C(O)C1O (stereo partly specified)
inactive: [8] > 10 µM

C[C@H]1O[C@@H](C(C)(C)C)OC(=O)[C@@H]1C(OC(=O)c1ccccc1)c1cccc2ccccc12 (stereo partly specified)
inactive: [8] > 100 µM

COC(=O)[C@@H]1[C@H](O)[C@H](C)[C@H](O)[C@H](C)/C=C\C=C(\C)C(=O)Nc2c(C)c(OC(C)=O)c3c(c2O)C(=O)C(C)=C2OCOC(=C23)/C(C)=C/[C@@H](O)[C@H](O)[C@@H](C)[C@H]1OC(C)=O
inactive: [8] > 100 µM

COc1ccc(-c2cc(=O)c3cc(O)ccc3o2)c(OC)c1OC
inactive: [1] 36.4 µM | [2] 30.5 µM | [3] 19.3 µM | [6] 45.3 µM | [7] 33.2 µM

Cc1cc(C)cc(Nc2cc(O)nc(O)n2)c1
inactive: [8] > 100 µM

Cc1ccnc2nc(-c3ccc4ccccc4c3)cc(O)c12
inactive: [8] 5.32 µM

CC(C)C(NC(=O)OC(C)(C)C)C(=O)N(C)C(Cc1ccccc1)C(=O)N(C)C(C(=O)O)C(C)C (stereo not drawn) (Boc-Val-[NMeF]-[NMeV]-OH; configuration not given here)
inactive: [2] > 100 µM | [3] > 100 µM | [5] > 100 µM | [6] > 100 µM

CCCCCC(=O)N[C@H](C(=O)N[C@H](C(=O)N(C)[C@H](C(=O)N1CCC[C@H]1C(=O)N1CCC[C@H]1C(=O)O[C@H](C(=O)N1C(=O)C=C(OC)[C@@H]1Cc1ccccc1)C(C)C)C(C)C)C(C)C)C(C)C (Hexanoyl-VV[NMeV]PP-X26)
inactive: [8] 59.8 µM
